This is an account of results in PubChem BioAssay (NCI).

Molecules are shown by their SMILES. Values joined by “and” are separate entries in the source; they are usually repeats but may differ in a detail not shown here. Identical values can stand only once.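 Dose response: 5 concentrations. Exposure: 48 h. Format: 96-well plates. Endpoint: linear interpolation; highest concentration if not reached. Abbreviation: GI50, concentration required for 50% inhibition of growth. Definition used: TGI = concentration required for complete inhibition of growth.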 Where only a bound is given, the exact number is not on record here.

Some test systems named below: CAKI-1 renal; COLO 205 colon; HS 578T breast; LOX IMVI melanoma; OVCAR-4 ovarian; SK-MEL-2 melanoma; SK-MEL-28 melanoma; SK-MEL-5 melanoma; TK-10 renal; UACC-62 melanoma.
Common to all, as to test: NCI anticancer screen, dose series, 48 h

In the case of `N=C(N)C(N=Nc1ccccc1)C(=N)N` (configuration not stated), the TGI in the assay with CAKI-1 renal is over 100 µM; with COLO 205 colon it was over 100 µM; in the assay on HS 578T breast, over 100 µM; in the assay on LOX IMVI melanoma, over 100 µM; in the assay with OVCAR-4 ovarian, over 100 µM; in the assay with SK-MEL-2 melanoma, 91.9 µM. In addition, the TGI in the assay with SK-MEL-28 melanoma, with SK-MEL-5 melanoma, with TK-10 renal and in the assay with UACC-62 melanoma was over 100 µM throughout.
In the case of `O=C1c2ccccc2-c2ccc(O)cc21`, the TGI with CAKI-1 renal is 37.8 µM; in the assay with COLO 205 colon it was 58.4 µM; in the assay on HS 578T breast it was over 100 µM; in the assay with LOX IMVI melanoma, 97.5 µM; with OVCAR-4 ovarian, 44.2 µM; in the assay on SK-MEL-2 melanoma, 46.5 µM. In addition, the TGI in the assay on SK-MEL-28 melanoma came to 45.8 µM; with SK-MEL-5 melanoma it was 45.4 µM; in the assay with TK-10 renal it was 49.5 µM; in the assay on UACC-62 melanoma, 30.9 µM.
Turning to `COC1(OC)C[C@H](C)[C@@]23O[C@]24c2cc(O)c5c(c2N[C@H]3C#C/C=C\C#C[C@]14O)C(=O)c1ccccc1C5=O`, the GI50 in the assay with CAKI-1 renal was under 0.001 µM; in the assay with HS 578T breast, 0.0847 µM; in the assay on SK-MEL-2 melanoma, 0.359 µM and 0.0593 µM; with SK-MEL-28 melanoma it was 0.0273 µM; in the assay with SK-MEL-5 melanoma it was 0.00172 µM; in the assay on UACC-62 melanoma, 0.00204 µM. Besides, the TGI is 0.00561 µM and 0.00653 µM in the assay on CAKI-1 renal; 0.0369 µM with COLO 205 colon; 0.516 µM and 3.6 µM in the assay on HS 578T breast; 0.049 µM with LOX IMVI melanoma; 4.2 µM with OVCAR-4 ovarian; 0.355 µM with SK-MEL-2 melanoma. Also, the TGI in the assay with SK-MEL-28 melanoma is 0.234 µM and 0.087 µM; in the assay on SK-MEL-5 melanoma, 0.0222 µM and 0.00891 µM; in the assay on TK-10 renal it was 0.401 µM; with UACC-62 melanoma, 0.0359 µM and 0.0324 µM.
In the case of `CCC(C)C(NC(=O)C(CCCCN)NC(=O)C(NC(=O)C(CCC(N)=O)NC(=O)C(CCCNC(=N)N)NC(C)=O)C(C)CC)C(=O)NC(Cc1c[nH]c2ccccc12)C(=O)NC(Cc1ccccc1)C(=O)NC(CCC(N)=O)C(=O)NC(CC(N)=O)C(=O)NC(CCCNC(=N)N)C(=O)NC(CCCNC(=N)N)C(=O)NC(CCSC)C(=O)NC(CCCCN)C(=O)NC(Cc1c[nH]c2ccccc12)C(=O)NC(CCCCN)C(=O)NC(CCCCN)C(N)=O` (configuration not stated), the TGI with CAKI-1 renal, in the assay with COLO 205 colon, in the assay with HS 578T breast, with LOX IMVI melanoma, in the assay on OVCAR-4 ovarian and in the assay on SK-MEL-2 melanoma was over 50 µM in each case. Besides, the TGI with SK-MEL-28 melanoma, in the assay on SK-MEL-5 melanoma, in the assay with TK-10 renal and in the assay with UACC-62 melanoma was over 50 µM throughout.
`O=C1OC(c2ccccc2)=N/C1=C/c1cccs1`: the TGI with HS 578T breast, in the assay with OVCAR-4 ovarian, in the assay on SK-MEL-2 melanoma, in the assay on SK-MEL-28 melanoma and with TK-10 renal was over 100 µM throughout.
Turning to `CC(=O)C1=C(O)C2(O)C(=O)c3c(c(C)c4ccc(C)c(O)c4c3O)CC2C(N)C1=O` (configuration not stated), the TGI in the assay with CAKI-1 renal was 7.99 µM; in the assay with COLO 205 colon it was 3.34 µM; in the assay with HS 578T breast, 9.48 µM; with LOX IMVI melanoma, 11.4 µM; with OVCAR-4 ovarian, 19 µM; with SK-MEL-2 melanoma, over 21 µM. For the same molecule, the TGI was found to be 13.3 µM in the assay with SK-MEL-28 melanoma, 3.85 µM in the assay with SK-MEL-5 melanoma, 8.86 µM with TK-10 renal and 5.25 µM in the assay with UACC-62 melanoma. Also, the GI50 in the assay with HS 578T breast was 1.99 µM.
`Cc1nc(Cl)c(C)c(Cl)n1`: the TGI in the assay with CAKI-1 renal was 0.0695 µM; in the assay on COLO 205 colon, over 100 µM; in the assay with HS 578T breast, over 100 µM; in the assay with LOX IMVI melanoma, over 100 µM; in the assay on OVCAR-4 ovarian, over 100 µM; in the assay with SK-MEL-2 melanoma it was over 100 µM. The TGI in the assay with SK-MEL-28 melanoma, in the assay on SK-MEL-5 melanoma, in the assay with TK-10 renal and in the assay on UACC-62 melanoma was over 100 µM each time.
With `S=C(NCCCCCCNC(=S)Nc1c2ccccc2nc2ccccc12)Nc1c2ccccc2nc2ccccc12`, the TGI in the assay on CAKI-1 renal, in the assay with COLO 205 colon, in the assay with LOX IMVI melanoma, in the assay with OVCAR-4 ovarian, in the assay on SK-MEL-2 melanoma and in the assay with SK-MEL-28 melanoma was over 100 µM in each case. The TGI in the assay with SK-MEL-5 melanoma and in the assay with UACC-62 melanoma was over 100 µM in each case.
With `O=C1c2scnc2-c2nccc3c2c1nc1ccccc13`, the TGI in the assay with CAKI-1 renal was 3.83 µM; with COLO 205 colon it was 2.68 µM; in the assay with HS 578T breast, over 100 µM; in the assay with LOX IMVI melanoma, 0.508 µM; in the assay on OVCAR-4 ovarian, 2.92 µM; in the assay on SK-MEL-2 melanoma it was 4.34 µM. Further, the TGI in the assay with SK-MEL-28 melanoma came to 2.56 µM; with UACC-62 melanoma, 1.45 µM.
In the case of `N#CCc1[nH]nc2nc(SCc3ccccc3)nc(N3CCCCC3)c12`, the TGI came out at 34.6 µM in the assay on CAKI-1 renal; 34.7 µM in the assay with COLO 205 colon; 39.2 µM in the assay on HS 578T breast; 43 µM in the assay with LOX IMVI melanoma; 36.4 µM in the assay on OVCAR-4 ovarian; 39.3 µM in the assay on SK-MEL-2 melanoma. Also, the TGI turned out to be 45.8 µM in the assay with SK-MEL-28 melanoma, 32.8 µM with SK-MEL-5 melanoma and 40.5 µM in the assay on TK-10 renal.
For the molecule `C[N+]1(C)C2CCC1CC(OC(=O)C(CO)c1ccccc1)C2` (configuration not stated), the TGI in the assay with CAKI-1 renal, with COLO 205 colon, with HS 578T breast, in the assay on LOX IMVI melanoma, in the assay with OVCAR-4 ovarian and with SK-MEL-2 melanoma was over 100 µM in each case. Also, the TGI in the assay with SK-MEL-28 melanoma, in the assay with SK-MEL-5 melanoma, with TK-10 renal and with UACC-62 melanoma was over 100 µM each time.
As to `OC1C=C2C3CN(Cc4cc5c(cc43)OCO5)[C@H]2C[C@@H]1O` (some centres not stated), the TGI in the assay with CAKI-1 renal is 29.7 µM; in the assay with COLO 205 colon, over 100 µM; in the assay with HS 578T breast, over 100 µM; in the assay on LOX IMVI melanoma it was over 100 µM; in the assay with OVCAR-4 ovarian, 25.9 µM; with SK-MEL-2 melanoma it was 11.9 µM. In addition, the TGI with SK-MEL-28 melanoma is over 100 µM; in the assay on SK-MEL-5 melanoma it was 16.4 µM; with TK-10 renal, 39.3 µM; with UACC-62 melanoma, 68.4 µM.
